Results: patent US6294526A, “Use of flavone derivatives for induction of β-lactam-sensitivity of MRSA” (priority 1998, dated 2001)
Read-outs that look alike come from different tables or passages of the source.

Experiments:
MRSA [1] = assay: antibacterial activity (MIC) by agar plate dilution method, MRSA strains; assay type: cell-based, methicillin-resistant Staphylococcus aureus; details: Staphylococcus aureus, 20 h; for MIC: range over strains
Experimental: (§1) The screening of the present invention may be carried out according to the agar plate dilution method designated by the Japan Society of Chemotherapy (Chemotherapy 29(1), 76-79 (1981)). Mueller-Hinton agar base semi-synthetic medium may be used for a plate culture medium for a sensitivity test together with an inoculating bacteria solution which may be prepared by culturing bacteria to be tested at 37° C. for 20 hours diluted with 8.5% by isotonic sodium chloride solution to 10^6 CFU/ml. Diluted β-lactam solutions are prepared by two times serial dilution. 1 ml of the diluted β-lactam solution and 1 ml of a predetermined concentration of a sample to be tested are added to 8 ml of the plate culture medium for a sensitivity test. To the resultant plate culture medium for sensitivity test, the bacteria are inoculated using a microplanter (SAKUMASEISAKUSYO Co.), cultured for 20 hours at 37° C. followed by assessing for a minimum inhibition concentration (MIC).
(§2) (A) Antibacterial activities of ether extract from Scutellaria barbata, SB-1 (isolated from Scutellaria barbata), apigenin (authentic sample) and luteolin (authentic sample) were shown in Table 1.
(§3) Flavones were dissolved in methanol and the others were dissolved in 0.1 N NaOH. A method for determination of antibacterial activity is, as described above, an agar plate dilution method designated by the Japan Society of Chemotherapy (Chemotherapy 29(1), 76-79 (1981)) to determine MIC value. MIC80 is a concentration at which a strain is prohibited to proliferate by 80% and MIC50 is a concentration at which a strain is prohibited to proliferate by 50%.

MSSA = assay: antibacterial activity (MIC) by agar plate dilution method, MSSA strains; assay type: cell-based, Methicillin-sensitive Staphylooccus aureus; details: Staphylococcus aureus, 20 h; for MIC: range over strains
Experimental: as §1, §2, §3

MRSA [2] = assay: antibacterial activity of antibiotics alone and in the presence of apigenin (4 μg/ml), MRSA; assay type: cell-based, methicillin-resistant Staphylococcus aureus; details: Staphylococcus aureus, MRSA, 20 h, MRSA
Experimental: as §1
(D) Then use of 4 μg/ml of apigenin and other antibiotics at the same time was studied. The antibiotics are penicillin , ampicillin, cephalothin, cefoxitin, cefuroxime, cefotaxime, vancomycin, streptomycin, chloramphenicol, kanamycin, erythromycin, nalixic acid and tetracycline.

[3] = MRSA (20 strains), read-out: MIC50
[4] = MRSA, MRSA (20 strains), read-out: MIC
[5] = MSSA (7 strains), read-out: MIC50
[6] = MSSA, MSSA (7 strains), read-out: MIC
[7] = antibiotic with Apigenin (4 μg/ml)

SMILES | MIC50 (MRSA [1]; [3]) [µg/mL] | MIC (MRSA [1]; [4]) [µg/mL] | MIC50 (MSSA; [5]) [µg/mL] | MIC (MSSA; [6]) [µg/mL] | also measured
Oc1cc(O)c2c(c1)O[C@H](c1ccc(O)c(O)c1)[C@@H](O)C2 [(+)-Catechin, (+)-catechin] | > 250 | > 250 | > 250 | > 250 | –
CC1(C)S[C@@H]2[C@H](NC(=O)[C@H](N)c3ccccc3)C(=O)N2[C@H]1C(=O)O [Ampicillin, ampicillin] | – | – | – | – | MIC (MRSA [2]; Antibiotics alone, read-out: MIC): 2 to 125 µg/mL; MIC50 (MRSA [2]; Antibiotics alone, read-out: MIC50): 31.3 µg/mL; MIC (MRSA [2]; antibiotic with Apigenin (4 μg/ml), read-out: MIC): 2 to 62.5 µg/mL; MIC50 (MRSA [2]; antibiotic with Apigenin (4 μg/ml), read-out: MIC50): 31.3 µg/mL
O=C(N[C@H](CO)[C@H](O)c1ccc([N+](=O)[O-])cc1)C(Cl)Cl [Chloramphenicol, chloramphenicol] | – | – | – | – | MIC (MRSA [2]; Antibiotics alone): 2 to 62.5 µg/mL; MIC50 (MRSA [2]; Antibiotics alone): 7.8 µg/mL; MIC (MRSA [2]; [7]): 3.9 to 31.3 µg/mL; MIC50 (MRSA [2]; [7]): 7.8 µg/mL
CC[C@H]1OC(=O)[C@H](C)[C@@H](O[C@H]2C[C@@](C)(OC)[C@@H](O)[C@H](C)O2)[C@H](C)[C@@H](O[C@@H]2O[C@H](C)C[C@H](N(C)C)[C@H]2O)[C@](C)(O)C[C@@H](C)C(=O)[C@H](C)[C@@H](O)[C@]1(C)O [Erythromycin, erythromycin] | – | – | – | – | MIC50 (MRSA [2]; Antibiotics alone): > 250 µg/mL; MIC50 (MRSA [2]; [7]): > 250 µg/mL
NC[C@H]1O[C@H](O[C@H]2[C@H](O)[C@@H](O[C@H]3O[C@H](CO)[C@@H](O)[C@H](N)[C@H]3O)[C@H](N)C[C@@H]2N)[C@H](O)[C@@H](O)[C@@H]1O [Kanamycin, kanamycin] | – | – | – | – | MIC50 (MRSA [2]; Antibiotics alone): > 250 µg/mL; MIC50 (MRSA [2]; [7]): 250 µg/mL
O=C1C[C@@H](c2ccc(O)cc2)Oc2cc(O)ccc21 [Liquiritigenin, liquiritigenin] | – | – | – | – | MIC50 (MRSA [1]; MRSA): > 250 µg/mL; MIC50 (MSSA; MSSA): > 250 µg/mL
CCn1cc(C(=O)O)c(=O)c2ccc(C)nc21 [Nalidixic acid] | – | – | – | – | MIC50 (MRSA [2]; Antibiotics alone): > 250 µg/mL; MIC50 (MRSA [2]; [7]): > 250 µg/mL
CC1(C)S[C@@H]2[C@H](NC(=O)Cc3ccccc3)C(=O)N2[C@H]1C(=O)O [Penicillin G, penicillin G] | – | – | – | – | MIC (MRSA [2]; Antibiotics alone): 0.49 to 125 µg/mL; MIC50 (MRSA [2]; Antibiotics alone): 31.3 µg/mL; MIC (MRSA [2]; [7]): 0.49 to 62.5 µg/mL; MIC50 (MRSA [2]; [7]): 15.6 µg/mL
O=c1c(O)c(-c2ccc(O)c(O)c2)oc2cc(O)c(O)c(O)c12 [Quercetagetin, quercetagetin] | – | – | – | – | MIC50 (MRSA [1]; MRSA): > 250 µg/mL; MIC (MRSA [1]; MRSA, MRSA (20 strains)): > 250 µg/mL; MIC50 (MSSA; MSSA): > 250 µg/mL; MIC (MSSA; MSSA, MSSA (7 strains)): > 250 µg/mL

Now from value to molecule, other results behind:

MIC50 (MRSA [1]; [3]) [µg/mL] | MIC (MRSA [1]; [4]) [µg/mL] | MIC50 (MSSA; [5]) [µg/mL] | MIC (MSSA; [6]) [µg/mL] | SMILES | also measured
> 250 | > 250 | > 250 | > 250 | COc1ccc(-c2cc(=O)c3c(O)cc(O)cc3o2)cc1 [Acacetin, acacetin] | –
> 250 | > 250 | > 250 | > 250 | O=c1cc(-c2ccccc2)oc2cc(O)c(O)c(O)c12 [Baicalein, baicalein] | –
> 250 | > 250 | > 250 | > 250 | O=c1cc(-c2ccccc2)oc2cc(O)cc(O)c12 [Chrysin, chrysin] | –
> 250 | > 250 | > 250 | > 250 | O=c1c(-c2ccc(O)cc2)coc2cc(O)ccc12 [Daidzein, daidzein] | –
> 250 | > 250 | > 250 | > 250 | COc1ccc(-c2coc3cc(O)ccc3c2=O)cc1 [Formononetin, formononetin] | –
> 250 | > 250 | > 250 | > 250 | O=c1c(-c2ccc(O)cc2)coc2cc(O)cc(O)c12 [Genistein, genistein] | –
> 250 | > 250 | > 250 | > 250 | COc1ccc([C@@H]2CC(=O)c3c(O)cc(O)cc3O2)cc1O [Hesperetin, hesperetin] | –
> 250 | – | > 250 | > 250 | O=c1c(O)c(-c2cc(O)c(O)c(O)c2)oc2cc(O)cc(O)c12 [Myricetin, myricetin] | –
> 250 | > 250 | > 250 | > 250 | O=C1C[C@@H](c2ccc(O)cc2)Oc2cc(O)cc(O)c21 [Naringenin, naringenin] | –
> 250 | > 250 | > 250 | > 250 | COc1cc(O)c2c(=O)c(O)c(-c3ccc(O)c(O)c3)oc2c1 [Rhamnetin, rhamnetin] | –
